Test results reported in PubChem BioAssay (NCI).
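48-hour exposure; five concentrations; linearly interpolated endpoints. TGI marks complete inhibition of growth.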

Legend:
Assay in all cases: inhibition of tumour cell growth, NCI panel, 48 h
OVCAR-5 ovarian = tested on: OVCAR-5 ovarian
RXF 393 renal = tested on: RXF 393 renal
IGROV1 ovarian = tested on: IGROV1 ovarian
NCI-H460 lung = tested on: NCI-H460 lung
HCT-15 colon = tested on: HCT-15 colon
SK-MEL-5 melanoma = tested on: SK-MEL-5 melanoma
KM20L2 colon = tested on: KM20L2 colon
HOP-92 NSCLC = tested on: HOP-92 NSCLC
KM12 colon = tested on: KM12 colon
TK-10 renal = tested on: TK-10 renal
SF-295 CNS = tested on: SF-295 CNS
EKVX NSCLC = tested on: EKVX NSCLC
NCI-H522 lung = tested on: NCI-H522 lung
HT29 colon = tested on: HT29 colon
SW-620 colon = tested on: SW-620 colon
A549 NSCLC = tested on: A549 NSCLC
SF-268 CNS = tested on: SF-268 CNS
NCI-H23 lung = tested on: NCI-H23 lung
SK-OV-3 ovarian = tested on: SK-OV-3 ovarian
NCI-H226 lung = tested on: NCI-H226 lung
SNB-78 CNS = tested on: SNB-78 CNS
DMS 273 small cell lung = tested on: DMS 273 small cell lung
COLO 205 colon = tested on: COLO 205 colon
OVCAR-4 ovarian = tested on: OVCAR-4 ovarian
M19-MEL melanoma = tested on: M19-MEL melanoma
HL-60(TB) leukemia = tested on: HL-60(TB) leukemia
SN12C renal = tested on: SN12C renal
SNB-19 CNS = tested on: SNB-19 CNS
MOLT-4 leukemia = tested on: MOLT-4 leukemia
HCC-2998 colon = tested on: HCC-2998 colon
SF-539 CNS = tested on: SF-539 CNS
A498 renal = tested on: A498 renal
SR leukemia = tested on: SR leukemia
RXF-631 renal = tested on: RXF-631 renal
OVCAR-3 ovarian = tested on: OVCAR-3 ovarian
SK-MEL-28 melanoma = tested on: SK-MEL-28 melanoma
SK-MEL-2 melanoma = tested on: SK-MEL-2 melanoma
LXFL 529 NSCLC = tested on: LXFL 529 NSCLC
HCT-116 colon = tested on: HCT-116 colon
UACC-257 melanoma = tested on: UACC-257 melanoma
ACHN renal = tested on: ACHN renal
CAKI-1 renal = tested on: CAKI-1 renal
UO-31 renal = tested on: UO-31 renal
UACC-62 melanoma = tested on: UACC-62 melanoma
HOP-18 NSCLC = tested on: HOP-18 NSCLC
HOP-62 NSCLC = tested on: HOP-62 NSCLC
DMS 114 small cell lung = tested on: DMS 114 small cell lung
XF 498 CNS = tested on: XF 498 CNS
U251 CNS = tested on: U251 CNS
SNB-75 CNS = tested on: SNB-75 CNS
M14 melanoma = tested on: M14 melanoma
MALME-3M melanoma = tested on: MALME-3M melanoma
786-0 renal = tested on: 786-0 renal
OVCAR-8 ovarian = tested on: OVCAR-8 ovarian
DLD-1 colon = tested on: DLD-1 colon
K-562 leukemia = tested on: K-562 leukemia
CCRF-CEM leukemia = tested on: CCRF-CEM leukemia
LOX IMVI melanoma = tested on: LOX IMVI melanoma
RPMI-8226 leukemia = tested on: RPMI-8226 leukemia

**Q.** What does the source list for `NC(=S)N/N=C1/C(=O)N(c2ccccc2)C(=O)C1C(=O)Nc1ccccc1` (centres undefined)?
**A.** TGI (OVCAR-5 ovarian): > 100 µM; TGI (RXF 393 renal): > 100 µM; TGI (IGROV1 ovarian): > 100 µM; TGI (NCI-H460 lung): > 100 µM; TGI (HCT-15 colon): > 100 µM; TGI (SK-MEL-5 melanoma): > 100 µM; TGI (KM20L2 colon): > 100 µM; TGI (HOP-92 NSCLC): > 100 µM; TGI (KM12 colon): > 100 µM; TGI (TK-10 renal): > 100 µM; TGI (SF-295 CNS): > 100 µM; TGI (EKVX NSCLC): > 100 µM; TGI (NCI-H522 lung): > 100 µM; TGI (HT29 colon): > 100 µM; TGI (SW-620 colon): > 100 µM; TGI (A549 NSCLC): > 100 µM; TGI (SF-268 CNS): > 100 µM; TGI (NCI-H23 lung): > 100 µM; TGI (SK-OV-3 ovarian): > 100 µM; TGI (NCI-H226 lung): > 100 µM; TGI (SNB-78 CNS): > 100 µM; TGI (DMS 273 small cell lung): > 100 µM; TGI (COLO 205 colon): > 100 µM; TGI (OVCAR-4 ovarian): > 100 µM; TGI (M19-MEL melanoma): > 100 µM; TGI (HL-60(TB) leukemia): > 100 µM; TGI (SN12C renal): > 100 µM; TGI (SNB-19 CNS): > 100 µM; TGI (MOLT-4 leukemia): > 100 µM; TGI (HCC-2998 colon): > 100 µM; TGI (SF-539 CNS): > 100 µM; TGI (A498 renal): > 100 µM; TGI (SR leukemia): > 100 µM; TGI (RXF-631 renal): > 100 µM; TGI (OVCAR-3 ovarian): > 100 µM; TGI (SK-MEL-28 melanoma): > 100 µM; TGI (SK-MEL-2 melanoma): > 100 µM; TGI (LXFL 529 NSCLC): > 100 µM; TGI (HCT-116 colon): > 100 µM; TGI (UACC-257 melanoma): > 100 µM; TGI (ACHN renal): > 100 µM; TGI (CAKI-1 renal): > 100 µM; TGI (UO-31 renal): > 100 µM; TGI (UACC-62 melanoma): > 100 µM; TGI (HOP-18 NSCLC): > 100 µM; TGI (HOP-62 NSCLC): > 100 µM; TGI (DMS 114 small cell lung): > 100 µM; TGI (XF 498 CNS): > 100 µM; TGI (U251 CNS): > 100 µM; TGI (SNB-75 CNS): > 100 µM; TGI (M14 melanoma): > 100 µM; TGI (MALME-3M melanoma): > 100 µM; TGI (786-0 renal): > 100 µM; TGI (OVCAR-8 ovarian): > 100 µM

**Q.** Which TGI (OVCAR-5 ovarian) does the source give for `Cc1ccc([N+](=O)[O-])cc1NC(=O)/C(CC(=O)c1sc(C(N)=S)nc1C)=N\N` here?
**A.** > 100 µM

**Q.** What about the TGI (RXF 393 renal) of the same molecule?
**A.** > 100 µM

**Q.** What about the TGI (IGROV1 ovarian) of the same molecule?
**A.** > 100 µM

**Q.** And the TGI (NCI-H460 lung)?
**A.** > 100 µM

**Q.** What about the TGI (HCT-15 colon) of the same molecule?
**A.** > 100 µM

**Q.** What about the TGI (SK-MEL-5 melanoma) of the same molecule?
**A.** > 100 µM

**Q.** What about the TGI (KM20L2 colon) of the same molecule?
**A.** > 100 µM

**Q.** What about the TGI (HOP-92 NSCLC) of the same molecule?
**A.** > 100 µM

**Q.** What about the TGI (KM12 colon) of the same molecule?
**A.** > 100 µM

**Q.** And the TGI (TK-10 renal)?
**A.** > 100 µM

**Q.** And the TGI (SF-295 CNS)?
**A.** > 100 µM

**Q.** What about the TGI (DLD-1 colon) of the same molecule?
**A.** > 100 µM

**Q.** And the TGI (EKVX NSCLC)?
**A.** > 100 µM

**Q.** What about the TGI (NCI-H522 lung) of the same molecule?
**A.** 76.4 µM

**Q.** What about the TGI (HT29 colon) of the same molecule?
**A.** > 100 µM

**Q.** And the TGI (SW-620 colon)?
**A.** > 100 µM

**Q.** And the TGI (A549 NSCLC)?
**A.** > 100 µM

**Q.** And the TGI (K-562 leukemia)?
**A.** > 100 µM

**Q.** And the TGI (SF-268 CNS)?
**A.** > 100 µM

**Q.** And the TGI (NCI-H23 lung)?
**A.** 83.8 µM

**Q.** What about the TGI (SK-OV-3 ovarian) of the same molecule?
**A.** > 100 µM

**Q.** And the TGI (SNB-78 CNS)?
**A.** > 100 µM

**Q.** What about the TGI (DMS 273 small cell lung) of the same molecule?
**A.** > 100 µM

**Q.** And the TGI (OVCAR-4 ovarian)?
**A.** > 100 µM

**Q.** And the TGI (M19-MEL melanoma)?
**A.** > 100 µM

**Q.** What about the TGI (HL-60(TB) leukemia) of the same molecule?
**A.** > 100 µM

**Q.** What about the TGI (SNB-19 CNS) of the same molecule?
**A.** > 100 µM

**Q.** What about the TGI (MOLT-4 leukemia) of the same molecule?
**A.** > 100 µM

**Q.** And the TGI (HCC-2998 colon)?
**A.** > 100 µM

**Q.** And the TGI (SF-539 CNS)?
**A.** > 100 µM

**Q.** What about the TGI (A498 renal) of the same molecule?
**A.** > 100 µM

**Q.** What about the TGI (SR leukemia) of the same molecule?
**A.** > 100 µM

**Q.** And the TGI (RXF-631 renal)?
**A.** > 100 µM

**Q.** What about the TGI (OVCAR-3 ovarian) of the same molecule?
**A.** 80.7 µM

**Q.** What about the TGI (SK-MEL-28 melanoma) of the same molecule?
**A.** > 100 µM

**Q.** And the TGI (SK-MEL-2 melanoma)?
**A.** > 100 µM

**Q.** What about the TGI (LXFL 529 NSCLC) of the same molecule?
**A.** > 100 µM

**Q.** What about the TGI (HCT-116 colon) of the same molecule?
**A.** > 100 µM

**Q.** And the TGI (UACC-257 melanoma)?
**A.** > 100 µM

**Q.** And the TGI (ACHN renal)?
**A.** > 100 µM

**Q.** What about the TGI (CAKI-1 renal) of the same molecule?
**A.** > 100 µM

**Q.** And the TGI (UO-31 renal)?
**A.** > 100 µM

**Q.** What about the TGI (UACC-62 melanoma) of the same molecule?
**A.** > 100 µM

**Q.** And the TGI (CCRF-CEM leukemia)?
**A.** 79.2 µM

**Q.** What about the TGI (LOX IMVI melanoma) of the same molecule?
**A.** > 100 µM

**Q.** What about the TGI (HOP-18 NSCLC) of the same molecule?
**A.** > 100 µM

**Q.** What about the TGI (HOP-62 NSCLC) of the same molecule?
**A.** > 100 µM

**Q.** What about the TGI (RPMI-8226 leukemia) of the same molecule?
**A.** > 100 µM

**Q.** And the TGI (DMS 114 small cell lung)?
**A.** > 100 µM

**Q.** And the TGI (U251 CNS)?
**A.** > 100 µM

**Q.** What about the TGI (SNB-75 CNS) of the same molecule?
**A.** > 100 µM

**Q.** What about the TGI (M14 melanoma) of the same molecule?
**A.** > 100 µM

**Q.** And the TGI (MALME-3M melanoma)?
**A.** > 100 µM

**Q.** What about the TGI (786-0 renal) of the same molecule?
**A.** > 100 µM

**Q.** What about the TGI (OVCAR-8 ovarian) of the same molecule?
**A.** > 100 µM
